Measured values taken from ChEMBL document CHEMBL1201862, “PubChem BioAssay data set” (2004).
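Cultured in 96-well plates, cells were exposed to test compound for 48 hours across five concentrations. At the GI50, growth is halved.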 The source made the active and inactive calls. Cut-off read from the data, not from the text of the source: active = GI50 up to about 1.1 µM and inactive = higher.

How the values were obtained:
Experiment in all cases: inhibition of tumour cell growth, NCI panel, 48 h
K562 = tested on: K562
RXF 631 = tested on: RXF 631
COLO 205 = tested on: COLO 205
SF-268 = tested on: SF-268
M14 = tested on: M14
KM-20L2 = tested on: KM-20L2
HCT-116 = tested on: HCT-116
A498 = tested on: A498
DMS-114 = tested on: DMS-114
CAKI-1 = tested on: CAKI-1
NCI-H23 = tested on: NCI-H23
HCT-15 = tested on: HCT-15
IGROV-1 = tested on: IGROV-1
KM12 = tested on: KM12
HL-60 = tested on: HL-60
SNB-75 = tested on: SNB-75
UACC-257 = tested on: UACC-257
HOP-18 = tested on: HOP-18
RPMI-8226 = tested on: RPMI-8226
HCC 2998 = tested on: HCC 2998
OVCAR-8 = tested on: OVCAR-8
TK-10 = tested on: TK-10
SK-MEL-28 = tested on: SK-MEL-28
DLD-1 = tested on: DLD-1
SNB-19 = tested on: SNB-19
SF-539 = tested on: SF-539
XF498 = tested on: XF498
M19-MEL = tested on: M19-MEL
SF-295 = tested on: SF-295
U-251 = tested on: U-251
HT-29 = tested on: HT-29
LXFL 529 = tested on: LXFL 529
UO-31 = tested on: UO-31
UACC-62 = tested on: UACC-62
RXF 393 = tested on: RXF 393
786-0 = tested on: 786-0
Malme-3M = tested on: Malme-3M
OVCAR-4 = tested on: OVCAR-4
NCI-H226 = tested on: NCI-H226
SW-620 = tested on: SW-620
SK-OV-3 = tested on: SK-OV-3
SK-MEL-2 = tested on: SK-MEL-2
DMS-273 = tested on: DMS-273
A549 = tested on: A549
ACHN = tested on: ACHN
NCI-H460 = tested on: NCI-H460
CCRF-CEM = tested on: CCRF-CEM
EKVX = tested on: EKVX
SK-MEL-5 = tested on: SK-MEL-5
OVCAR-3 = tested on: OVCAR-3
SN12C = tested on: SN12C
MOLT-4 = tested on: MOLT-4
LOX IMVI = tested on: LOX IMVI
OVCAR-5 = tested on: OVCAR-5
SNB-78 = tested on: SNB-78
SR = tested on: SR
NCI-H522 = tested on: NCI-H522
HOP-92 = tested on: HOP-92
HOP-62 = tested on: HOP-62

## Cc1cc(C)cc(NC(=O)CCC(=O)C2CCC/C2=N\NC(=O)C(=O)NN)c1 (configuration not stated)
K562
  GI50: > 100 µM (inactive)
RXF 631
  GI50: > 100 µM (inactive)
COLO 205
  GI50: > 100 µM (inactive)
SF-268
  GI50: > 100 µM (inactive)
M14
  GI50: > 100 µM (inactive)
KM-20L2
  GI50: > 100 µM (inactive)
HCT-116
  GI50: > 100 µM (inactive)
A498
  GI50: > 100 µM (inactive)
DMS-114
  GI50: > 100 µM (inactive)
CAKI-1
  GI50: > 100 µM (inactive)
NCI-H23
  GI50: > 100 µM (inactive)
HCT-15
  GI50: > 100 µM
IGROV-1
  GI50: > 100 µM (inactive)
KM12
  GI50: > 100 µM (inactive)
HL-60
  GI50: > 100 µM (inactive)
SNB-75
  GI50: > 100 µM (inactive)
UACC-257
  GI50: > 100 µM (inactive)
HOP-18
  GI50: > 100 µM (inactive)
RPMI-8226
  GI50: > 100 µM (inactive)
HCC 2998
  GI50: > 100 µM (inactive)
OVCAR-8
  GI50: > 100 µM (inactive)
TK-10
  GI50: > 100 µM (inactive)
SK-MEL-28
  GI50: > 100 µM (inactive)
DLD-1
  GI50: > 100 µM (inactive)
SNB-19
  GI50: > 100 µM (inactive)
SF-539
  GI50: > 100 µM (inactive)
XF498
  GI50: > 100 µM (inactive)
M19-MEL
  GI50: > 100 µM (inactive)
SF-295
  GI50: > 100 µM (inactive)
U-251
  GI50: > 100 µM (inactive)
HT-29
  GI50: > 100 µM (inactive)
LXFL 529
  GI50: > 100 µM (inactive)
UO-31
  GI50: > 100 µM (inactive)
UACC-62
  GI50: > 100 µM (inactive)
RXF 393
  GI50: > 100 µM (inactive)
786-0
  GI50: > 100 µM (inactive)
Malme-3M
  GI50: > 100 µM (inactive)
OVCAR-4
  GI50: > 100 µM (inactive)
NCI-H226
  GI50: > 100 µM (inactive)
SW-620
  GI50: > 100 µM (inactive)
SK-OV-3
  GI50: > 100 µM (inactive)
SK-MEL-2
  GI50: > 100 µM (inactive)
DMS-273
  GI50: > 100 µM (inactive)
A549
  GI50: > 100 µM (inactive)
ACHN
  GI50: > 100 µM (inactive)
NCI-H460
  GI50: > 100 µM (inactive)
CCRF-CEM
  GI50: > 100 µM (inactive)
EKVX
  GI50: > 100 µM (inactive)
SK-MEL-5
  GI50: > 100 µM (inactive)
OVCAR-3
  GI50: > 100 µM (inactive)
SN12C
  GI50: > 100 µM (inactive)
MOLT-4
  GI50: > 100 µM (inactive)
LOX IMVI
  GI50: > 100 µM (inactive)
OVCAR-5
  GI50: > 100 µM (inactive)

## CC1=C(/C=C/C2=CC(=C\C(=O)O)/CC(C3=C(C)CCCC3(C)C)C2)C(C)(C)CCC1 (configuration not stated)
RXF 631
  GI50: 11.1 µM (inactive)
COLO 205
  GI50: 16.4 µM (inactive)
SF-268
  GI50: 20.9 µM (inactive)
M14
  GI50: 14.8 µM (inactive)
HCT-116
  GI50: 15 µM (inactive)
A498
  GI50: 15.2 µM (inactive)
DMS-114
  GI50: 10.9 µM (inactive)
CAKI-1
  GI50: 15.9 µM (inactive)
NCI-H23
  GI50: 13.9 µM (inactive)
IGROV-1
  GI50: 13.2 µM (inactive)
KM12
  GI50: 11.9 µM (inactive)
SNB-75
  GI50: 14.6 µM (inactive)
UACC-257
  GI50: 15.6 µM (inactive)
HOP-18
  GI50: 14 µM (inactive)
RPMI-8226
  GI50: 5.36 µM (inactive)
OVCAR-8
  GI50: 14.7 µM (inactive)
TK-10
  GI50: 13.5 µM (inactive)
SK-MEL-28
  GI50: 16 µM (inactive)
DLD-1
  GI50: 12.2 µM (inactive)
SNB-19
  GI50: 14.3 µM (inactive)
SNB-78
  GI50: 20.7 µM (inactive)
SF-539
  GI50: 16.8 µM (inactive)
XF498
  GI50: 14.4 µM (inactive)
SR
  GI50: 5.65 µM (inactive)
M19-MEL
  GI50: 15.3 µM (inactive)
SF-295
  GI50: 10.1 µM (inactive)
U-251
  GI50: 11.1 µM (inactive)
HT-29
  GI50: 13.6 µM (inactive)
NCI-H522
  GI50: 10.6 µM (inactive)
LXFL 529
  GI50: 13.8 µM (inactive)
UO-31
  GI50: 10.7 µM (inactive)
UACC-62
  GI50: 10.9 µM (inactive)
RXF 393
  GI50: 10.8 µM (inactive)
786-0
  GI50: 14.8 µM (inactive)
Malme-3M
  GI50: 18.7 µM (inactive)
OVCAR-4
  GI50: 13.7 µM (inactive)
NCI-H226
  GI50: 11.2 µM (inactive)
SW-620
  GI50: 15 µM (inactive)
SK-OV-3
  GI50: 13.7 µM (inactive)
HOP-92
  GI50: 11.2 µM (inactive)
SK-MEL-2
  GI50: 11.3 µM (inactive)
DMS-273
  GI50: 13.9 µM (inactive)
A549
  GI50: 4.8 µM (inactive)
ACHN
  GI50: 10.4 µM (inactive)
NCI-H460
  GI50: 13.9 µM (inactive)
HOP-62
  GI50: 14 µM (inactive)
EKVX
  GI50: 11.3 µM (inactive)
SK-MEL-5
  GI50: 14.8 µM (inactive)
OVCAR-3
  GI50: 14 µM (inactive)
SN12C
  GI50: 15.6 µM (inactive)
MOLT-4
  GI50: 3.01 µM (inactive)
LOX IMVI
  GI50: 13.7 µM (inactive)
OVCAR-5
  GI50: 16.4 µM (inactive)
